Measurements from ChEMBL document CHEMBL6182864, “Design, synthesis and biological evaluation of 3-amino-6-(2-hydroxyphenyl)pyridazin-4-aryl derivatives as SMARCA2/4 degraders” (Eur J Med Chem, 2025).
Calls of active or inactive are those of the source. The calls are words filed in the database; no cut-off is given here.

Columns and labels:
MV4-11 [1] = test: Antiproliferative activity against human MV4-11 cells assessed as reduction in cell viability at 100 nM by MTT assay; format: functional, cell-based; conditions: time 3-7 day
MOLM-13 [2] = test: Antiproliferative activity against human MOLM-13 cells assessed as reduction in cell viability at 100 nM by MTT assay; format: functional, cell-based; conditions: time 3-7 day
[3] = Down regulation of PBRM1 level in human MV4-11 cells at 100 nM measured after 6 hrs by mass spectrometric proteomic analysis relative to control; format: functional
MV4-11 [4] = test: Effect on SMARCA2 mRNA expression in human MV4-11 cells at 1000 nM measured after 24 hrs by RT-qPCR analysis; format: functional, cell-based
MV4-11 [5] = test: Effect on SMARCA4 mRNA expression in human MV4-11 cells at 1000 nM measured after 24 hrs by RT-qPCR analysis; format: functional, cell-based
MV4-11 [6] = test: Cell cycle arrest in human MV4-11 cells assessed as increase in accumulation of cells at G0/G1 phase measured after 48 hrs by propidium iodide staining based flow cytometry; format: functional; conditions: dose 100-1000 nM
MV4-11 [7] = test: Induction of apoptosis in human MV4-11 cells assessed as viable cells at 100 nM measured after 72 hrs by Annexin-V-FITC/propidium iodide staining based flow cytometry (reference value: 89.49%); format: functional; conditions: read-out: Activity
MV4-11 [8] = test: Induction of apoptosis in human MV4-11 cells assessed as early apoptotic cells at 100 nM measured after 72 hrs by Annexin-V-FITC/propidium iodide staining based flow cytometry (reference value: 9.32%); format: functional
MV4-11 [9] = test: Induction of apoptosis in human MV4-11 cells assessed as late apoptotic cells at 100 nM measured after 72 hrs by Annexin-V-FITC/propidium iodide staining based flow cytometry (reference value: 1.09%); format: functional
MV4-11 [10] = test: Induction of apoptosis in human MV4-11 cells assessed as necrotic cells at 100 nM measured after 72 hrs by Annexin-V-FITC/propidium iodide staining based flow cytometry (reference value: 0.1%); format: functional
MOLM-13 [11] = test: Induction of apoptosis in human MOLM-13 cells assessed as viable cells at 100 nM measured after 72 hrs by Annexin-V-FITC/propidium iodide staining based flow cytometry (reference value: 90.28%); format: functional; conditions: read-out: Activity
MV4-11 [12] = test: Induction of apoptosis in human MV4-11 cells assessed as upregulation of PARP expression measured after 72 hrs by Western blot analysis; format: functional, cell-based; conditions: dose 100-1000 nM
MV4-11 [13] = test: Induction of apoptosis in human MV4-11 cells assessed as upregulation of cleaved caspase-3 expression measured after 72 hrs by Western blot analysis; format: functional, cell-based; conditions: dose 100-1000 nM
MOLM-13 [14] = test: Induction of apoptosis in human MOLM-13 cells assessed as upregulation of PARP expression measured after 72 hrs by Western blot analysis; format: functional, cell-based; conditions: dose 100-1000 nM
MV4-11 [15] = test: Down regulation of MYC mRNA expression in human MV4-11 cells measured after 24 hrs by RT-qPCR analysis; format: functional, cell-based; conditions: dose 11.1-1000 nM
MV4-11 [16] = test: Down regulation of […] mRNA expression in human MV4-11 cells at 100 to 1000 nM measured after 24 hrs by RT-qPCR analysis; format: functional, cell-based; conditions: dose 100-1000 nM
MV4-11 [17] = test: Down regulation of TRAP1 mRNA expression in human MV4-11 cells at 100 to 1000 nM measured after 24 hrs by RT-qPCR analysis; format: functional, cell-based; conditions: dose 100-1000 nM
MV4-11 [18] = test: Down regulation of PU.1 mRNA expression in human MV4-11 cells at 11.1 to 1000 nM measured after 24 hrs by RT-qPCR analysis; format: functional, cell-based; conditions: dose 11.1-1000 nM
[19] = Half life in SPF Sprague-Dawley rat at 1 mg/kg, iv by LC-MS/MS analysis; format: ADME, organism-based; conditions: in vivo
[20] = Cmax in SPF Sprague-Dawley rat at 10 mg/kg, po by LC-MS/MS analysis; format: ADME, organism-based; conditions: in vivo
[21] = Tmax in SPF Sprague-Dawley rat at 10 mg/kg, po by LC-MS/MS analysis; format: ADME, organism-based; conditions: in vivo
MV4-11 [22] = test: Induction of apoptosis in human MV4-11 cells assessed as early apoptotic cells at 300 nM measured after 72 hrs by Annexin-V-FITC/propidium iodide staining based flow cytometry (reference value: 9.32%); format: functional
MV4-11 [23] = test: Induction of apoptosis in human MV4-11 cells assessed as late apoptotic cells at 300 nM measured after 72 hrs by Annexin-V-FITC/propidium iodide staining based flow cytometry (reference value: 1.09%); format: functional
MV4-11 [24] = test: Induction of apoptosis in human MV4-11 cells assessed as necrotic cells at 300 nM measured after 72 hrs by Annexin-V-FITC/propidium iodide staining based flow cytometry (reference value: 0.1%); format: functional
MOLM-13 [25] = test: Induction of apoptosis in human MOLM-13 cells assessed as viable cells at 300 nM measured after 72 hrs by Annexin-V-FITC/propidium iodide staining based flow cytometry (reference value: 90.28%); format: functional; conditions: read-out: Activity
MOLM-13 [26] = test: Induction of apoptosis in human MOLM-13 cells assessed as early apoptotic cells at 300 nM measured after 72 hrs by Annexin-V-FITC/propidium iodide staining based flow cytometry (reference value: 5.57%); format: functional
MOLM-13 [27] = test: Induction of apoptosis in human MOLM-13 cells assessed as late apoptotic cells at 300 nM measured after 72 hrs by Annexin-V-FITC/propidium iodide staining based flow cytometry (reference value: 3.87%); format: functional
MOLM-13 [28] = test: Induction of apoptosis in human MOLM-13 cells assessed as necrotic cells at 300 nM measured after 72 hrs by Annexin-V-FITC/propidium iodide staining based flow cytometry (reference value: 0.28%); format: functional
MV4-11 [29] = test: Induction of apoptosis in human MV4-11 cells assessed as late apoptotic cells at 1000 nM measured after 72 hrs by Annexin-V-FITC/propidium iodide staining based flow cytometry (reference value: 1.09%); format: functional
MOLM-13 [30] = test: Induction of apoptosis in human MOLM-13 cells assessed as viable cells at 1000 nM measured after 72 hrs by Annexin-V-FITC/propidium iodide staining based flow cytometry (reference value: 90.28%); format: functional; conditions: read-out: Activity
MOLM-13 [31] = test: Induction of apoptosis in human MOLM-13 cells assessed as early apoptotic cells at 1000 nM measured after 72 hrs by Annexin-V-FITC/propidium iodide staining based flow cytometry (reference value: 5.57%); format: functional
MOLM-13 [32] = test: Induction of apoptosis in human MOLM-13 cells assessed as late apoptotic cells at 1000 nM measured after 72 hrs by Annexin-V-FITC/propidium iodide staining based flow cytometry (reference value: 3.87%); format: functional
MV4-11 [33] = test: cells; conditions: Homo sapiens, MV4-11, 72 h
SUD4 = test: cells; conditions: Homo sapiens, SU-DHL-4, 72 h
WSUDLCL2 = test: cells; conditions: Homo sapiens, WSUDLCL2, 72 h
MCF7 = test: cells; conditions: Homo sapiens, MCF7, 72 h
HCT-116 = test: cells; conditions: Homo sapiens, HCT-116, 72 h
A549 = test: cells; conditions: Homo sapiens, A549, 72 h

half-life [19]: 1.91 h
Cmax [20]: 6.41 ng/mL
Tmax [21]: 0.42 h
IC50 (MV4-11 [33]): 5 nM
IC50 (SUD4): 88 nM
IC50 (WSUDLCL2): 337 nM
IC50 (MCF7): > 30000 nM
IC50 (HCT-116): > 30000 nM
IC50 (A549): 6020 nM
SMILES: Cc1ncsc1-c1ccc([C@H](C)NC(=O)[C@@H]2C[C@@H](O)CN2C(=O)[C@@H](NC(=O)C2(c3ccc(-c4cc(-c5ccccc5O)nnc4N)cc3)CC2)C(C)(C)C)cc1
Activity (MV4-11 [1]): Time-dependent-effect; Complete Reduction Was Achieved On Day 7
Activity (MOLM-13 [2]): Time-dependent-effect; Complete Reduction Was Achieved On Day 7
Activity [3]: >=50%
Activity (MV4-11 [4]): Active; Little Effect Mrna Level Observed
Activity (MV4-11 [5]): Active; Little Effect Mrna Level Observed
Activity (MV4-11 [6]): Dose-dependent-effect
viability at 0.1 µM (MV4-11 [7]): 32.3%
Activity (MV4-11 [8]): 47.5%
Activity (MV4-11 [9]): 18.96%
Activity (MV4-11 [10]): 1.26%
viability at 0.1 µM (MOLM-13 [11]): 54.1%
Activity (MV4-11 [12]): Dose-dependent-effect
Activity (MV4-11 [13]): Dose-dependent-effect
Activity (MOLM-13 [14]): Dose-dependent-effect
Activity (MV4-11 [15]): Dose-dependent-effect
Activity (MV4-11 [16]): Active
Activity (MV4-11 [17]): Active
Activity (MV4-11 [18]): Active
Activity (MV4-11 [22]): 54.11%
Activity (MV4-11 [23]): 20.37%
Activity (MV4-11 [24]): 1.1%
viability at 0.3 µM (MOLM-13 [25]): 27.1%
Activity (MOLM-13 [26]): 58.21%
Activity (MOLM-13 [27]): 14.39%
Activity (MOLM-13 [28]): 0.31%
Activity (MV4-11 [29]): 24.35%
viability at 1 µM (MOLM-13 [30]): 25.7%
Activity (MOLM-13 [31]): 57.3%
Activity (MOLM-13 [32]): 16.77%
